Article PMC10584882 (Communications Biology, 2023)
“And” between values parts separate entries of the source, which are not always exact repeats. Equal entries are not always repeated. Where two headings read alike, the source gives them in different places.

How the values were obtained:
SARS-CoV-2 [1] = test: Viral loading determination via RT-qPCR in LC-HK2 cells; format: cell-based; settings: for Viral titer (% control): LC-HK2, RT-qPCR
SARS-CoV-2 [2] = test: Cytopathic effect inhibition assay in LC-HK2 cells; format: cell-based; settings: for CPE inhibition (%): LC-HK2
LC-HK2 cells = test: Fluorescence microscopy, S-protein vesicle size in infected LC-HK2 cells; format: cell-based, human; settings: 1.5 µM, versus control
Method: LC-HK2 was cultivated on coverslips (13 mm diameter) to approximately 80% confluence. The cells were pre-treated for 2 h with 1.5 µM of S-Calpeptin diluted in DMEM supplemented with 2.5% FBS. The compounds were removed, and SARS-CoV-2 strain diluted in DMEM supplemented with 2.5% FBS was added to LC-HK2 cells at M.O.I of 0.05, allowing absorption for 1 h. The viral inoculum was removed, and cells were gently washed with PBS without calcium and magnesium. The cells were incubated in the continued presence of 1.5 µM of S-Calpeptin diluted in DMEM supplemented with 2.5% FBS and were examined by fluorescence microscopy at the time points 32, 40, 48, 56, 64 and 72 h post-infection.
For this purpose, the cells were fixed and permeabilized with 3.7% formaldehyde solution (Sigma-Aldrich, F1635) containing 0.2% Triton X-100 in PBS 1×. […] The images were captured using fluorescence range intensity adjusted identically within each experimental series.
Vesicles size quantifications were obtained from 2D maximum projections of Z stacks exported as grayscale TIFs (16-bit depth) using Automated Image Analysis in Zen 2.6 blue software (ZEISS). […]
In the Fluorescence microscopy evaluation, the P-values were generated by unpaired t-test using GraphPad Prism version 8.00 (La Jolla, CA, USA, www.graphpad.com). […]

SMILES: CCCC[C@@H](C=O)NC(=O)[C@H](CC(C)C)NC(=O)OCc1ccccc1 [Calpeptin, reference compound]
- Viral titer (% control) (SARS-CoV-2 [1]; 0.0006 μM): 100 % control
- Viral titer (% control) (SARS-CoV-2 [1]; 0.0012 μM): 100 % control
- Viral titer (% control) (SARS-CoV-2 [1]; 0.0024 μM): 100 % control
- Viral titer (% control) (SARS-CoV-2 [1]; 0.0049 μM): 100 % control
- Viral titer (% control) (SARS-CoV-2 [1]; 0.0098 μM): 100 % control
- Viral titer (% control) (SARS-CoV-2 [1]; 0.0195 μM): 100 % control
- Viral titer (% control) (SARS-CoV-2 [1]; 0.0391 μM): 100 % control
- Viral titer (% control) (SARS-CoV-2 [1]; 0.0781 μM): 100 % control
- Viral titer (% control) (SARS-CoV-2 [1]; 0.1563 μM): 100 % control and 71.76 % control
- Viral titer (% control) (SARS-CoV-2 [1]; 0.3125 μM): 77.19 % control and 100 % control
- Viral titer (% control) (SARS-CoV-2 [1]; 0.625 μM): 85.89 % control and 100 % control
- Viral titer (% control) (SARS-CoV-2 [1]; 1.25 μM): 75.06 % control and 100 % control
- Viral titer (% control) (SARS-CoV-2 [1]; 100 μM): 0 % control
- EC50 (SARS-CoV-2 [1]; Severe acute respiratory syndrome coronavirus 2, LC-HK2, RT-qPCR, 72 h post-infection, read-out: Viral titer EC50): 1700 nM
- CPE inhibition (%) (SARS-CoV-2 [2]; 0.0000000001 μM, 1e-10 µM): 6.04%
- CPE inhibition (%) (SARS-CoV-2 [2]; 0.00000001 μM, 10 fM): 8.96%
- CPE inhibition (%) (SARS-CoV-2 [2]; 0.0000001 μM, 100 fM): 9.11%
- CPE inhibition (%) (SARS-CoV-2 [2]; 0.001 μM): 0.77%
- CPE inhibition (%) (SARS-CoV-2 [2]; 0.01 μM): 24.54%
- CPE inhibition (%) (SARS-CoV-2 [2]; 0.1 μM): 36.51%
- CPE inhibition (%) (SARS-CoV-2 [2]; 1 μM): 50.4%
- CPE inhibition (%) (SARS-CoV-2 [2]; 10 μM): 59.73%
- inhibition at 1e-12 µM (SARS-CoV-2 [2]; Severe acute respiratory syndrome coronavirus 2, LC-HK2, 0.000000000001 μM (first of two lines so printed, r18), read-out: CPE inhibition (%)): 0%
- inhibition at 1e-12 µM (SARS-CoV-2 [2]; Severe acute respiratory syndrome coronavirus 2, LC-HK2, 0.000000000001 μM (second line, r19), read-out: CPE inhibition (%)): 0%
- inhibition at 1e-11 µM (SARS-CoV-2 [2]; Severe acute respiratory syndrome coronavirus 2, LC-HK2, 0.00000000001 μM, read-out: CPE inhibition (%)): 0%
- inhibition at 1 fM (SARS-CoV-2 [2]; Severe acute respiratory syndrome coronavirus 2, LC-HK2, 0.000000001 μM, read-out: CPE inhibition (%)): 0%
- inhibition at 10 pM (SARS-CoV-2 [2]; Severe acute respiratory syndrome coronavirus 2, LC-HK2, 0.00001 μM, read-out: CPE inhibition (%)): 0%
- inhibition at 0.0001 µM (SARS-CoV-2 [2]; Severe acute respiratory syndrome coronavirus 2, LC-HK2, 0.0001 μM, read-out: CPE inhibition (%)): 0%
- inhibition at 0.01 µM (SARS-CoV-2 [2]; Severe acute respiratory syndrome coronavirus 2, LC-HK2, 0.01 μM, read-out: CPE inhibition (%)): 19%
- inhibition at 0.1 µM (SARS-CoV-2 [2]; Severe acute respiratory syndrome coronavirus 2, LC-HK2, 0.1 μM, read-out: CPE inhibition (%)): 24.4%
- inhibition at 1 µM (SARS-CoV-2 [2]; Severe acute respiratory syndrome coronavirus 2, LC-HK2, 1 μM, read-out: CPE inhibition (%)): 60.8%
- inhibition at 10 µM (SARS-CoV-2 [2]; Severe acute respiratory syndrome coronavirus 2, LC-HK2, 10 μM, read-out: CPE inhibition (%)): 52.8%
- EC50 (SARS-CoV-2 [2]; Severe acute respiratory syndrome coronavirus 2, LC-HK2, CellTiter-Glo, 72 h post-infection, read-out: CPE inhibition EC50): 60 nM
- impact on vesicle morphology / S-protein vesicle size (LC-HK2 cells): no substantial impact on vesicle morphology
